What was measured:
[1] = target: T1, Lxrα (Homo sapiens, UniProt Q13133); test: Lxr-responsive luciferase reporter assay (Lxre + Lxrα) in SN4741 neural cells; assay type: cell-based, mouse; conditions: for Lxrα activation, luciferase activity: 10 μM, 24 h
T1 construct: expressed in transfected cells; host or cells: SN4741 mouse neuronal cell line
T1 sequence (Q13133 1-447): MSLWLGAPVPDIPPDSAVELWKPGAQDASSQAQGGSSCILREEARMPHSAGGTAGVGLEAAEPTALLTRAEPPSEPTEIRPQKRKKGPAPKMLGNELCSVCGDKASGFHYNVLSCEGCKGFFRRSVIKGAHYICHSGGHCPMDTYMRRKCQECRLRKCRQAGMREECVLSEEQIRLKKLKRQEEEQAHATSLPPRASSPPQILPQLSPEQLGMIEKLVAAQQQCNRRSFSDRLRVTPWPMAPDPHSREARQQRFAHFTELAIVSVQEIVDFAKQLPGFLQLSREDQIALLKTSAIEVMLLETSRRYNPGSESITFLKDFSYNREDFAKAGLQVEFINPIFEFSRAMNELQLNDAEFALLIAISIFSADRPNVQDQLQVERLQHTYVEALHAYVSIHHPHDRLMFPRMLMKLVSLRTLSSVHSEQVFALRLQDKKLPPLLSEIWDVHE
Excerpt: (§1) Luciferase Reporter Assay.

[2] = target: T2, Lxrβ (Homo sapiens, UniProt P55055); test: Lxr-responsive luciferase reporter assay (Lxre + Lxrβ) in SN4741 neural cells; assay type: cell-based, mouse; conditions: SN4741 cells, 10 μM, 24 h
T2 construct: expressed in transfected cells; host or cells: SN4741 mouse neuronal cell line
T2 sequence (P55055 1-460): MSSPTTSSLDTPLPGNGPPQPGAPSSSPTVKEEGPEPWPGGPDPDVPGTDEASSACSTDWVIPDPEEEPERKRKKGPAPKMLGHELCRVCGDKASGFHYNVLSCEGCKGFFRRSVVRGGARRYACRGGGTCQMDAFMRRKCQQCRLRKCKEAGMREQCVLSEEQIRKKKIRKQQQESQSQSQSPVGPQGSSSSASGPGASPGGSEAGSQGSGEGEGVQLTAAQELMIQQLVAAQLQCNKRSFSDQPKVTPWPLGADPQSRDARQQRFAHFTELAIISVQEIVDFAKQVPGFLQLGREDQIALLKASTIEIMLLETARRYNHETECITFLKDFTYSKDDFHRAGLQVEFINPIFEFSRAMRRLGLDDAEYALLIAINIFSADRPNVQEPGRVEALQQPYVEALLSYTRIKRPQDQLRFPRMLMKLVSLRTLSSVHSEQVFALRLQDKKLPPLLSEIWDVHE
Excerpt: as §1

[3] = system: Islet-1:GFP transgenic zebrafish embryos; assay type: in vivo; conditions: 10 μM
Protocol: Quantitative PCR. Total RNA was extracted from SN4741 cells and zebrafish treated with the compounds of interest using the RNeasy Mini Kit (Qiagen), 1 μg was treated with RQ1 RNase-free DNase (Promega) and reverse transcribed using Superscript II Reverse Transcriptase (Invitrogen) and random primers (Invitrogen) (RT+ reaction). Parallel reactions without reverse transcriptase enzyme were done as a control (RT− reaction), and Sybergreen real-time quantitative PCR assays were performed. Expression levels were obtained by normalization with the value of the housekeeping gene encoding actin obtained for every sample in parallel assays.
Zebrafish Strain and Mainrenance Zebrafish were raised on a 14/10 h day/night cycle and were kept at 28.5° C. Islet-1:GFP transgenic embryos were obtained via natural spawning and staged in hours or days post fertilization (hpf and dpf) according to Kimmel et al). Embryos older than 24 hpf were treated with 0.03% phenylthiourea (PTU) to inhibit pigmentation. MO injections were performed using splice site specific zebrafish 1xr MO. MO injected embryos were immediately dechorionated and transferred to a 96 well plate and exposed to dimethyl sulfoxide (DMSO) treated or ligand treated medium.
Compound Exposure. Islet-1:GFP embryos were collected by natural mating and immediately (at 1 cell stage) dechorionated and transferred to a 96 well plate. Each of the compounds tested were obtained as 10 mM stock and diluted in embryo medium to a final concentration of 10 μM, and 200 μL was added to each well. DMSO or propan-2-ol treated embryo medium was taken as control. Ligand solutions were replaced every 12 h with fresh ligand solution prepared in PTU treated embryo medium. Embryos were collected at 48 hpf, fixed for 4 h at room temperature with 4% paraformaldehyde and then washed and kept in PBST. Immunocytochemistry was performed using an anti-GFP antibody and fluorescence was viewed and photographed using a Zeiss Axioplan compound microscope and a Zeiss Axiocam digital camera.

[4] = system: mouse E11.5 brain primary cultures; test: Mouse E11.5 brain primary cultures (Islet1+, active caspase 3+, BrdU, Nkx6.1 counts); assay type: cell-based; conditions: wild type cultures, 3 DIV
Protocol: Primary Brain Cultures. Brains from E11.5 mice were manually dissected, plated on poly-D-lysine (150,000 cells/cm2) and grown in serum-free N2 media consisting of 1:1 mixture of F12 and DMEM with 10 ng/mL insulin, 100 μg/mL apo-transferrin, 100 μM putrescine, 20 nM progesterone, 30 nM selenium, 6 mg/mL glucose, and 1 mg/mL BSA. Cells were treated for 3 days in vitro (DIV) with the compounds of interest, fixed with 4% PFA and processed for staining using appropriate antibodies.
For BrdU analysis, cells were treated with BrdU one hour after plating and media was replaced with fresh medium after 16 h. After a further 2 days in culture, cells were treated for 30 min with 2N HCl and then immunocytochemistry was performed to evaluate the number of double BrdU+;Islet1+ cells (a measure of motor neuron neurogenesis). Hoechst staining was performed by permeabilizing cells with a 0.3% Triton-X 100/PBS solution for 5 min followed by incubation with Hoechst 33258 (Sigma) for 10 min.
Antibodies and Detection Procedures. Cells were fixed in 4% PFA, washed in PBS and blocked in 5% normal goat serum/PBS for 1 h at room temperature. Primary antibodies were diluted in PBS (pH 7.4), 0.3% Triton X-100, 1% BSA and incubations were carried out overnight at +4° C. or at room temperature for 2 h. The antibodies used were anti-: BrdU (1:400; Abeam), Islet-1 (1:100; Developmental Studies Hybridoma Bank), cleaved caspase-3 (Asp175) (1:100; Cell Signaling Technology), tyrosine hydroxylase (TH;1:1000; Pel-Freeze) GABA (1:1,000; Sigma), Brn3a (1:250; Millipore), Nkx6.1 (1:200; Novus Biologicals), choline acetyltransferase (ChAT; 1:500; Millipore) and appropriate secondary antibodies (Jackson ImmunoResearch or Alexa). Cells positive for the corresponding marker were counted directly at the microscope at a magnification of 20 x. Cells were counted in every well, in eight consecutive fields (going from one side of the well to the other, passing through the center), in three different wells per experiment and in three different experiments per condition. Random pictures of the wells were taken for every condition to document the result, and representative pictures were subsequently selected to represent the quantitative data. Photos were acquired with a Zeiss Axioplan microscope and a Hamamatsu camera C4742-95 using the Openlab software.

Structure (SMILES) | Lxrα activation, luciferase activity [1] | Lxrβ activation, luciferase activity [2] | other results
CC(C)CCC[C@@H](C)[C@H]1CC[C@H]2[C@@H]3C=CC4=CC(=O)CC[C@]4(C)[C@H]3CC[C@]12C [cholesta-4,6-dien-3-one] | None of these compounds showed significant activity |  | 
CC(C)CCC[C@@H](C)[C@H]1CC[C@H]2[C@@H]3[C@H](O)CC4=CC(=O)CC[C@]4(C)[C@H]3C[C@H](O)[C@]12C [7α,12α-diHCO, 7α,12α-Dihydroxycholest-4-en-3-one] | None of these compounds showed significant activity |  | 
CC(CCC[C@@H](C)[C@H]1CC[C@H]2[C@@H]3[C@H](O)CC4=CC(=O)CC[C@]4(C)[C@H]3CC[C@]12C)C(=O)O (stereo partly drawn) [7αH,3O-CA, 7α-hydroxy-3-oxocholest-4-en-26-oic acid] | none of which was found to show significant activity | none of which was found to show significant activity | abca1 mRNA expression in vivo [3]: not; Islet-GFP expression in cranial nerves ([3]; 48 hpf): failed to regulate Islet-GFP expression
CC(C)[C@@H](O)CC[C@@H](C)[C@H]1CC[C@H]2[C@@H]3CC=C4C[C@@H](O)CC[C@]4(C)[C@H]3CC[C@]12C [24S-HC, Cholest-5-ene-3β,24S-diol] | activate Lxr | activate Lxr | 
CC(CO)CCC[C@@H](C)[C@H]1CC[C@H]2[C@@H]3[C@H](O)CC4=CC(=O)CC[C@]4(C)[C@H]3CC[C@]12C (stereo partly drawn) [7α,26-diHCO, 7α,26-dihydroxycholest-4-en-3-one] | none of which was found to show significant activity | none of which was found to show significant activity | 
C[C@@H](CO)CCC[C@@H](C)[C@H]1CC[C@H]2[C@@H]3CC=C4C[C@@H](O)CC[C@]4(C)[C@H]3CC[C@]12C [26-HC, cholest-(25R)-5-ene-3β,26-diol] | no a significant effect | no a significant effect | Number of Islet1+ cells [4]: no effect on the number of Islet1+ cells
CC(C)CC[C@@H](O)[C@@H](C)[C@H]1CC[C@H]2[C@@H]3CC=C4C[C@@H](O)CC[C@]4(C)[C@H]3CC[C@]12C [22R-HC, 22R-hydroxycholesterol, reference compound] |  |  | Number of Islet1+ cells [4]: does not show an effect towards Islet1+ cells; Lxr luciferase activity with the Lxr antagonist GGPP ([1]; metabolite 10 μM + GGPP 10 μM): similarly blocked
CC(C)CCC[C@@H](C)[C@H]1CC[C@H]2[C@@H]3[C@H](O)CC4=CC(=O)CC[C@]4(C)[C@H]3CC[C@]12C [7α-HCO, 7α-Hydroxycholest-4-en-3-one] | None of these compounds showed significant activity |  | 
CC(CCC[C@@H](C)[C@H]1CC[C@H]2[C@@H]3[C@@H](O)CC4=CC(=O)CC[C@]4(C)[C@H]3CC[C@]12C)C(=O)O (stereo partly drawn) [7βH,3O-CA, 7β-hydroxy-3-oxocholest-4-en-26-oic acid] | none of which was found to show significant activity | none of which was found to show significant activity | 
CC(C)CCC[C@@H](C)[C@H]1CC[C@H]2[C@@H]3CC[C@H]4CC(=O)CC[C@]4(C)[C@H]3CC[C@]12C [5α-cholestan-3-one] | None of these compounds showed significant activity |  | 
CC(C)CCC[C@@H](C)[C@H]1CC[C@H]2[C@@H]3CC[C@H]4C[C@@H](O)CC[C@]4(C)[C@H]3CC[C@]12C [5α-cholestan-3β-ol] | None of these compounds showed significant activity |  | 
CC(C)CCC[C@@H](C)[C@H]1CC[C@H]2[C@@H]3CCC4=CC(=O)CC[C@]4(C)[C@H]3CC[C@]12C [cholest-4-en-3-one] | None of these compounds showed significant activity |  | 
CC(C)CCC[C@@H](C)[C@H]1CC[C@H]2[C@@H]3[C@H](O)C=C4C[C@@H](O)CC[C@]4(C)[C@H]3CC[C@]12C [7α-HC, Cholest-5-ene-3β,7α-diol] | None of these compounds showed significant activity |  | 
CC(C)CCC[C@@H](C)[C@H]1CC[C@H]2[C@@H]3[C@@H](O)C=C4C[C@@H](O)CC[C@]4(C)[C@H]3CC[C@]12C [7β-HC, Cholest-5-ene-3β,7β-diol] | None of these compounds showed significant activity |  | 
CC(CO)CCC[C@@H](C)[C@H]1CC[C@H]2[C@@H]3[C@H](O)C=C4C[C@@H](O)CC[C@]4(C)[C@H]3CC[C@]12C (stereo partly drawn) [7α,26-diHC, cholest-5-ene-3β,7α,26-triol] | none of which was found to show significant activity | none of which was found to show significant activity | 

— patent US20230416299A1, “COMPOUND AND METHOD FOR THE TREATMENT AND DIAGNOSIS OF NEURODEGENERATIVE CONDITIONS” (Swansea University, priority 2013, published 2023)
